Values of other authors as cited in patent US7294332B2, “Combination therapy (temozolomide and α-IFN) for advanced cancer” (Schering Corporation, priority 1995, dated 2007).

Legend:
advanced melanoma [1] = conditions: patients with advanced melanoma; Journal of Clinical Oncology, Vol 13, No. 4 (April), 1995
advanced melanoma [2] = conditions: patients having advanced melanoma; Newlands ES, et al. Br J Cancer 65 (2), 1992

Cn1nnc2c(C(N)=O)ncn2c1=O [Temozolomide, 3,4-dihydro-3-methyl-4-oxoimidazo-[5,1-d]1,2,3,4-tetrazin-8-carboximide]
clinical response achieved, % of patients (advanced melanoma [1]): 21% | clinical responses achieved, % of patients (advanced melanoma [2]): 17%
